Experiment [1] has as its system ATXN3 transcripts containing exon 4 (E4E5) in SK-N-MC cells. Briefly: ATXN3 Quantitative Splicing Assay (qPCR, E4E5 transcripts containing exon 4). The class given is cell-based. To be noted: Homo sapiens, 24 h treatment, qPCR primers/probe E4E5. On the procedure: Human neuroblastoma SK-N-MC cells were plated in 384-well plates at 20,000 cells/well. Twenty-four hours after plating, cells were treated with compounds for 24 h at appropriate concentrations ranging from 30 μM to 0.6 nM (0.3% DMSO). Treated cells were lysed in 15 μL of lysis buffer, and cDNA was synthesized using the Fast Advanced Cells-to-Ct kit. Two μL of each cDNA was used in qPCR reactions to confirm the exon 4 skipped transcripts of ATXN3. A second set of primers/probe E4E5 was used to detect the transcripts containing exon 4. The third set of primers/probe E8E9 was used to detect total gene level of ATXN3. The qPCR reactions were prepared in 384-well plates in 10 μL volume, using TaqMan™ Fast Advanced Master Mix with primers and probes shown in the table below. Reactions were run in a Quant Studio 6 qPCR instrument with default settings.
The primers and probes are listed below in Table 4.
(§1) Compounds were tested as outlined in Examples 2 and 3 above and the results are shown below in Table 5.
Background: Real-time PCR tracks product formation cycle by cycle.

Experiment [2] relates to total ATXN3 protein levels in SK-N-MC cells. Briefly: ATXN3 Total Protein Assay (MSD). The conditions noted are these: Homo sapiens, 48 hours incubation. Type of experiment: cell-based. As for the experimental part:
Human neuroblastoma SK-N-MC cells were seeded at 10,000 cells/well in 384 well plates one day prior to compound treatment. The concentrations of compounds were tested at appropriate doses ranging from 30 μM to 0.6 nM. After incubation for 48 hours, the cells were lysed with 25 μL of lysis buffer containing protease inhibitors, and total ATXN3 protein levels were assessed by Mesoscale Discovery (MSD) assay developed with one pair of anti-ATXN3 antibodies. The capture and detect antibodies were raised in mouse and rabbit respectively. Anti-rabbit MSD-ST antibody was used for secondary antibody.
ATXN3 recombinant protein was used for standards. The readouts were captured with 35 μL of MSD read buffer and multi-array 384-well high binding plates.
as §1

Drawing on US20250340564A1, “COMPOSITIONS USEFUL FOR MODULATING SPLICING” (SKYHAWK THERAPEUTICS, INC., priority 2021, published 2025), this text covers IC50 for 22 compounds.

The term IC50 denotes the concentration that inhibits the measured activity by half.

As to `Cc1c(C[C@H](C)N)sc2c(NCc3ccccc3F)cnnc12` [Compound 6, 6-[(2S)-2-aminopropyl]-N-[(2-fluorophenyl)methyl]-7-methylthieno[3,2-c]pyridazin-4-amine], the IC50 lay in the range of 0.501 to 5 µM in experiment [1] and 5 to 10 µM in experiment [2].

Take `Cc1c(C[C@H](C)N)sc2c(NCc3ccncn3)cnnc12` [Compound 22, 6-[(2S)-2-aminopropyl]-7-methyl-N-[(pyrimidin-4-yl)methyl]thieno[3,2-c]pyridazin-4-amine]: the IC50 in experiment [1] and in experiment [2] was 10 to 40 µM throughout.

For `CC[C@H](N)Cc1sc2c(NCc3ccncc3)cnnc2c1C` [Compound 10, 6-[(2S)-2-aminobutyl]-7-methyl-N-[(pyridin-4-yl)methyl]thieno[3,2-c]pyridazin-4-amine], the IC50 in experiment [1] and in experiment [2] was 10 to 40 µM in each case.

Regarding `C[C@H](N)Cc1cc2nnc(Br)c(NCc3ccccc3)c2s1` [Compound 40, 6-[(2S)-2-aminopropyl]-N-benzyl-3-bromothieno[3,2-c]pyridazin-4-amine], the IC50 in experiment [1] and in experiment [2] was 10 to 40 µM throughout.

On to `Cc1c(C[C@H](C)N)sc2c(NCc3ccccc3)cnnc12` [Compound 37, 6-[(2S)-2-aminopropyl]-N-benzyl-7-methylthieno[3,2-c]pyridazin-4-amine], for which the IC50 in experiment [1] and in experiment [2] was 0.501 to 5 µM in each case.

Regarding `Cc1csc2c(NCc3ccncc3F)cnnc12` [Compound 35, N-[(3-fluoropyridin-4-yl)methyl]-7-methylthieno[3,2-c]pyridazin-4-amine], the IC50 in experiment [1] and in experiment [2] was 10 to 40 µM throughout.

For `C[C@H](N)Cc1sc2c(NCc3ccncc3)cnnc2c1Br` [Compound 20, 6-[(2S)-2-aminopropyl]-7-bromo-N-[(pyridin-4-yl)methyl]thieno[3,2-c]pyridazin-4-amine], the IC50 in experiment [1] lay in the range of 5 to 10 µM; in experiment [2] it was 10 to 40 µM.

Consider `Clc1csc2c(NCc3ccncc3)cnnc12` [Compound 38, 7-chloro-N-[(pyridin-4-yl)methyl]thieno[3,2-c]pyridazin-4-amine], for which the half-inhibitory concentration (IC50) in experiment [1] and in experiment [2] was 10 to 40 µM throughout.

Turning to `Cc1c(C[C@H](C)N)sc2c(NCc3ccncc3F)cnnc12` [Compound 4, 6-[(2S)-2-aminopropyl]-N-[(3-fluoropyridin-4-yl)methyl]-7-methylthieno[3,2-c]pyridazin-4-amine], the half-inhibitory concentration (IC50) is 5 to 10 µM in experiment [1] and 10 to 40 µM in experiment [2].

`Brc1csc2c(NCc3ccncc3)cnnc12` [Compound 41, 7-bromo-N-[(pyridin-4-yl)methyl]thieno[3,2-c]pyridazin-4-amine]: the IC50 in experiment [1] was 0.101 to 0.5 µM; in experiment [2] it was 10 to 40 µM.

Regarding `Cc1c(C[C@@H](N)CO)sc2c(NCc3ccccc3)cnnc12` [Compound 39, (2R)-2-amino-3-[4-(benzylamino)-7-methylthieno[3,2-c]pyridazin-6-yl]propan-1-ol], the IC50 in experiment [1] and in experiment [2] was 0.501 to 5 µM throughout.

In the case of `Cc1csc2c(NCc3ccncn3)cnnc12` [Compound 34, 7-methyl-N-[(pyrimidin-4-yl)methyl]thieno[3,2-c]pyridazin-4-amine], the IC50 in experiment [1] and in experiment [2] was 10 to 40 µM each time.

With `Cc1c(C[C@@H](N)CO)sc2c(NCc3ccccc3F)cnnc12` [Compound 7, (2R)-2-amino-3-(4-{[(2-fluorophenyl)methyl]amino}-7-methylthieno[3,2-c]pyridazin-6-yl)propan-1-ol], the IC50 in experiment [1] and in experiment [2] was 10 to 40 µM in each case.

As for `Cc1c(C[C@@H](N)CCO)sc2c(NCc3ccncc3)cnnc12` [Compound 11, (3S)-3-amino-4-(7-methyl-4-{[(pyridin-4-yl)methyl]amino}thieno[3,2-c]pyridazin-6-yl)butan-1-ol], the concentration for half-maximal inhibition (IC50) in experiment [1] and in experiment [2] was 10 to 40 µM throughout.

Turning to `C[C@H](N)Cc1sc2c(NCc3ccncc3)cnnc2c1Cl` [Compound 8, 6-[(2S)-2-aminopropyl]-7-chloro-N-[(pyridin-4-yl)methyl]thieno[3,2-c]pyridazin-4-amine], the IC50 in experiment [1] and in experiment [2] was 10 to 40 µM each time.

For the compound `Cc1c(C[C@@H](N)CO)sc2c(NCc3ccncc3F)cnnc12` [Compound 5, (2R)-2-amino-3-(4-{[(3-fluoropyridin-4-yl)methyl]amino}-7-methylthieno[3,2-c]pyridazin-6-yl)propan-1-ol], the IC50 in experiment [1] lay in the range of 5 to 10 µM; in experiment [2], 10 to 40 µM.

For the compound `Cc1c(C[C@H](C)N)sc2c(NCc3ccncc3)cnnc12` [Compound 1, 6-[(2S)-2-aminopropyl]-7-methyl-N-[(pyridin-4-yl)methyl]thieno[3,2-c]pyridazin-4-amine], the IC50 in experiment [1] and in experiment [2] was 5 to 10 µM in each case.

For the compound `Cc1c(C[C@@H](N)CO)sc2c(NCc3ccncc3)cnnc12` [Compound 3, (2R)-2-amino-3-(7-methyl-4-{[(pyridin-4-yl)methyl]amino}thieno[3,2-c]pyridazin-6-yl)propan-1-ol], the half-inhibitory concentration (IC50) lay in the range of 5 to 10 µM in experiment [1] and 10 to 40 µM in experiment [2].

Regarding `Cc1c(C[C@@H](N)CO)sc2c(NCc3ccncn3)cnnc12` [Compound 23, (2R)-2-amino-3-(7-methyl-4-{[(pyrimidin-4-yl)methyl]amino}thieno[3,2-c]pyridazin-6-yl)propan-1-ol], the IC50 in experiment [1] and in experiment [2] was 10 to 40 µM in each case.

Regarding `Cc1c(C[C@@H](N)CCO)sc2c(NCc3ccccc3)cnnc12` [Compound 42, (3S)-3-amino-4-[4-(benzylamino)-7-methylthieno[3,2-c]pyridazin-6-yl]butan-1-ol], the 50% inhibitory concentration (IC50) in experiment [1] fell in the range of 5 to 10 µM; in experiment [2], 0.501 to 5 µM.

`c1cc(CNc2cnnc3ccsc23)ccn1` [Compound 33, N-[(pyridin-4-yl)methyl]thieno[3,2-c]pyridazin-4-amine]: the IC50 in experiment [1] and in experiment [2] was 10 to 40 µM throughout.

In the case of `Cc1csc2c(NCc3ccccc3F)cnnc12` [Compound 36, N-[(2-fluorophenyl)methyl]-7-methylthieno[3,2-c]pyridazin-4-amine], the IC50 in experiment [1] and in experiment [2] was 10 to 40 µM in each case.
